Counter-ions that a name gives are not always drawn.
Test system: HeLa cells
Test: Doxorubicin-induced G2M checkpoint abrogation HeLa cell-based Acumen assay (pHH3)
Details: 125 nM doxorubicin, 7 h compound
Procedure: An inhibitor of Chk1 will disable the G2M DNA damage checkpoint in p53-minus tumor cells treated with the topoisomerase II inhibitor, doxorubicin. A measurement of G2M checkpoint abrogation is the phosphorylation of histone H3 on serine 10 that occurs after cells traverse the G2M checkpoint and enter mitosis. The following high content imaging assay can be used to measure the phosphorylation histone H3 in cells. HeLa cells are cultured in MEM Media supplemented with 10% (v/v) FBS and plated at 2000 cells per well in poly D-lysine coated clear bottom black plates, 100 μL volume per well. Plates are then incubated in a cell culture incubator for 18-24 h (37° C., 5% CO2 and 95% relative humidity), Following the initial incubation, 20 μL of MEM Media plus 10% FBS containing […] doxorubicin are added to the appropriate wells of the plates resulting in a final concentration of 125 nM. The plates are returned to the incubator for 24 h, sufficient to arrest the cells at the G2M checkpoint. The next day the cells are treated 1.0 with compounds. Compounds are solubilized at […] in 100% DMSO and then diluted to a 10× stock starting at 50 μM in MEM plus 4% (v/v) DMSO. Subsequently, serial dilutions of the compounds (1:2) are prepared over a 50 μM to 0.39 μM range. Thirteen μL of compound stock is added to the appropriate wells in the plate to produce a final DMSO concentration of 0.4% and a final compound concentration range between 5 and 0.039 μM. […] Plates are scanned with ACUMEN EXPLORER™ Laser-scanning fluorescence microplate cytometers using 488 nm excitation (TTP LABTECH LTC) to measure pHH3 and DNA content including 2N, and 4N, The pHH3 positive cells are identified by mean intensity at 519 nm from Alexa 488. […] The final readout for each population is determined by normalizing to the % of total cells producing a final assay output of % pHH3, % 2N, and % 4N. 100% activity is then determined by treating cells with the maximum concentration of an inhibitor control compound at 100 nM to determine the final % activity of each compound. […]

EC50 (Homo sapiens, HeLa, 7 h) [nM] | EC50 (acetic acid salt) [nM] | SMILES
29 | – | COc1nc(C)ccc1-c1cc(Nc2cncc(O[C@@H]3CCCNC3)n2)[nH]n1 [Example 1, (R)-[5-(2-Methoxy-6-methyl-pyridin-3-yl)-2H-pyrazol-3-yl]-[6-(piperidin-3-yloxy)-pyrazin-2-yl]-amine]
– | 19 | COc1nc(C)ccc1-c1cc(Nc2cncc(O[C@@H]3CCCNC3)n2)[nH]n1 [Example 3, (R)-[5-(2-Methoxy-6-methyl-pyridin-3-yl)-2H-pyrazol-3-yl]-[6-(piperidin-3-yloxy)-pyrazin-2-yl]-amine acetic acid salt]

— US9067920B2, “Compounds useful for inhibiting Chk1” (Eli Lilly and Company, priority 2010, dated 2015)
